Assay results as given in paper PMC5025651, “Reprofiled anthelmintics abate hypervirulent stationary-phase Clostridium difficile” (Scientific Reports, 2016).
In brackets after ≈: the same amount, converted by molar mass. Where two headings read alike, the source gives them in different places.

Assays:
C. difficile strain 4118 [1] = test: Minimum bactericidal concentration (MBC), logarithmic- and stationary-phase cells; type: cell-based, Clostridium difficile; conditions: Clostridioides difficile, 4118, 20–24 h, n = 2
Experimental: The procedure for MBC determination was adapted from that of Alam et al.[44]. Briefly, a single overnight colony of C. difficile strain 4118 (streaked onto blood agar plate) was suspended in BHIS and grown to OD600 ~ 0.4–0.5 (logarithmic phase) or for 24 h (stationary phase). In 96-well microtiter plates, cultures were added to two-fold serial dilutions of test compounds in BHIS and incubated for 20–24 h at 37 °C in an anaerobic chamber. […] MBC measurements were performed in duplicate.

[2] = test system: C. clostridioforme ATCC 25537; test: MIC by broth microdilution; type: cell-based, Clostridium clostridioforme; conditions: Clostridium, ATCC25537; C. clostridioforme ATCC 25537; BHIS, anaerobic; duplicate; read-out: MIC
[3] = test system: L. reuteri Strain CF48-3A; test: MIC by broth microdilution; type: cell-based, Lactobacillus reuteri; conditions: Limosilactobacillus reuteri; L. reuteri CF48-3A; CAMHB with 5% laked horse blood, ~48 h; duplicate; read-out: MIC
[4] = test system: B. breve Strain EX336960VC19; test: MIC by broth microdilution; type: cell-based; conditions: Bifidobacterium breve; B. breve EX336960VC19; LSM broth, anaerobic; duplicate; read-out: MIC
S. epidermidis 1457 = test: MIC by broth microdilution; type: cell-based; conditions: Staphylococcus epidermidis; S. epidermidis 1457; CAMHB, aerobic; duplicate; read-out: MIC
[5] = test system: B. thetaiotaomicron ATCC 29148; test: microbe, parasite or virus in culture; type: cell-based; conditions: Bacteroides thetaiotaomicron, ATCC29148
L. plantarum ATCC 8014 = test: MIC by broth microdilution; type: cell-based; conditions: Lactiplantibacillus plantarum, ATCC8014; L. plantarum ATCC 8014; CAMHB with 5% laked horse blood, ~48 h; duplicate; read-out: MIC
16 C. difficile isolates = test: MIC by broth microdilution, summary over 16 C. difficile isolates; type: cell-based, Clostridium difficile; conditions: n = 2
[6] = test system: C. difficile isolate 20110960 (ribotype 017); test: MIC by broth microdilution; type: cell-based, Clostridium difficile; conditions: Clostridioides difficile; isolate 20110960, ribotype 017; duplicate; read-out: MIC
C. sporogenes ATCC 15579 = test: MIC by broth microdilution; type: cell-based; conditions: Clostridium sporogenes, ATCC15579, BHIS, anaerobic, duplicate
[7] = test system: C. difficile isolate 20110869 (ribotype 001_072); test: MIC by broth microdilution; type: cell-based, Clostridium difficile; conditions: Clostridioides difficile; isolate 20110869, ribotype 001_072; duplicate; read-out: MIC
P. nigrescens ATCC 33563 = test: MIC by broth microdilution; type: cell-based; conditions: Prevotella nigrescens, ATCC33563; P. nigrescens ATCC 33563; supplemented Brucella broth, anaerobic; duplicate; read-out: MIC
[8] = test system: C. difficile isolate 20120016 (ribotype 019); test: MIC by broth microdilution; type: cell-based, Clostridium difficile; conditions: Clostridioides difficile; isolate 20120016, ribotype 019; duplicate; read-out: MIC
C. difficile strain 4118 [9] = test: Time-kill kinetics against stationary-phase cultures; type: cell-based, Clostridium difficile; conditions: stationary-phase CD4118
Experimental: At t = 0, 3, 6 and 24 h, sample aliquots were withdrawn from the treated cultures and bacterial viability was scored by plating serial dilutions on BHIS agar plates. The agar plates were incubated in the anaerobic chamber for 20–24 h at 37 °C. Kinetic experiments were performed at least twice.

S. aureus RN4220 = test: MIC by broth microdilution; type: cell-based; conditions: Staphylococcus aureus, CAMHB, aerobic, duplicate
[10] = test system: C. difficile isolate 20110740 (ribotype 018); test: MIC by broth microdilution; type: cell-based, Clostridium difficile; conditions: Clostridioides difficile; isolate 20110740, ribotype 018; duplicate; read-out: MIC
[11] = test system: C. difficile strain 4118 (CD4118, ATCC BAA-1870, ribotype 027); test: MIC by broth microdilution; type: cell-based, Clostridium difficile; conditions: Clostridioides difficile, ATCCBAA1870; BHIS broth, anaerobic, 20–24 h, n = 2; read-out: MIC C. difficile 4118
[12] = test system: L. johnsonii Strain 135-1-CHN; test: MIC by broth microdilution; type: cell-based; conditions: Lactobacillus johnsonii, STRAIN1351CHN; L. johnsonii 135-1-CHN; CAMHB with 5% laked horse blood, ~48 h; duplicate; read-out: MIC
P. distasonis ATCC 8503 = test: MIC by broth microdilution; type: cell-based; conditions: Parabacteroides distasonis, ATCC8503; P. distasonis ATCC 8503; supplemented Brucella broth, anaerobic; duplicate; read-out: MIC
[13] = test system: C. difficile isolate 20110566 (ribotype 020); test: MIC by broth microdilution; type: cell-based, Clostridium difficile; conditions: Clostridioides difficile; isolate 20110566, ribotype 020; duplicate; read-out: MIC
[14] = test system: C. difficile isolate 20110986 (ribotype 078); test: MIC by broth microdilution; type: cell-based, Clostridium difficile; conditions: Clostridioides difficile; isolate 20110986, ribotype 078; duplicate; read-out: MIC
[15] = test system: C. difficile isolate 20121412 (ribotype 047); test: MIC by broth microdilution; type: cell-based, Clostridium difficile; conditions: Clostridioides difficile; isolate 20121412, ribotype 047; duplicate; read-out: MIC
[16] = test system: B. fragilis Strain CL05T00C42; test: MIC by broth microdilution; type: cell-based; conditions: Bacteroides fragilis; B. fragilis CL05T00C42; supplemented Brucella broth, anaerobic; duplicate; read-out: MIC
Hemolysis assay = type: cell-based; conditions: sheep, pH 7.4
Experimental: Sheep red blood cells (Innovative Research, Novi, MI, USA) were washed three times with PBS pH 7.4. A 3% cell suspension in PBS (100 μL) was added to test compounds in PBS (100 μL, to a final concentration of 32 μg/mL), and then incubated at 37 °C for 1 h. The plate was centrifuged at 500 × g for 10 min, and supernatants (100 μL) were transferred to a clean 96-well plate. Hemolysis was determined by measuring absorbance at 540 nm, with 1% Triton X-100 as the positive control and 0.5% DMSO in PBS as the negative control. Hemolysis assays were performed in triplicate.

[17] = test system: B. longum subsp. longum Strain 44B; test: MIC by broth microdilution; type: cell-based; conditions: Bifidobacterium longum; B. longum subsp. longum 44B; LSM broth, anaerobic; duplicate; read-out: MIC
[18] = test system: C. difficile isolate 20100422 (ribotype 054); test: MIC by broth microdilution; type: cell-based, Clostridium difficile; conditions: Clostridioides difficile; isolate 20100422, ribotype 054; duplicate; read-out: MIC
B. subtilis ATCC 6051 = test: MIC by broth microdilution; type: cell-based; conditions: Bacillus subtilis, ATCC6051; B. subtilis ATCC 6051; CAMHB, aerobic; duplicate; read-out: MIC
[19] = test system: C. difficile isolate 20110742 (ribotype 002); test: MIC by broth microdilution; type: cell-based, Clostridium difficile; conditions: Clostridioides difficile; isolate 20110742, ribotype 002; duplicate; read-out: MIC
[20] = test system: C. difficile isolate 20110973 (ribotype 106); test: MIC by broth microdilution; type: cell-based, Clostridium difficile; conditions: Clostridioides difficile; isolate 20110973, ribotype 106; duplicate; read-out: MIC
[21] = test system: C. difficile isolate 20100584 (ribotype 014); test: MIC by broth microdilution; type: cell-based, Clostridium difficile; conditions: Clostridioides difficile; isolate 20100584, ribotype 014; duplicate; read-out: MIC
A. baumannii M2 = test: MIC by broth microdilution; type: cell-based; conditions: Acinetobacter baumannii; A. baumannii M2; CAMHB, aerobic; duplicate; read-out: MIC

SMILES: Cc1cc(C(C#N)c2ccc(Cl)cc2)c(Cl)cc1NC(=O)c1cc(I)cc(I)c1O (centres unmarked) [Closantel]
- MBC (C. difficile strain 4118 [1]; minimum bactericidal concentration (≥3-log reduction) for logarithmic-phase cells, read-out: MBClog): 2 µg/mL (≈ 3.02 µM)
- MBC (C. difficile strain 4118 [1]; minimum bactericidal concentration (≥3-log reduction) for stationary-phase cells, read-out: MBCstat): 4 µg/mL (≈ 6.03 µM)
- MIC [2]: 4 µg/mL (≈ 6.03 µM)
- MIC [3]: 32 µg/mL (≈ 48.3 µM)
- MIC [4]: > 32 µg/mL
- MIC (S. epidermidis 1457): ≤ 0.03 µg/mL
- MIC [5]: > 32 µg/mL
- MIC (L. plantarum ATCC 8014): > 32 µg/mL
- MIC50 (16 C. difficile isolates; Clostridioides difficile, MIC at which 50% of the 16 isolates are inhibited, read-out: MIC50): 0.25 µg/mL (≈ 0.377 µM)
- MIC90 (16 C. difficile isolates; Clostridioides difficile, MIC at which 90% of the 16 isolates are inhibited, read-out: MIC90): 0.25 µg/mL (≈ 0.377 µM)
- MIC Range (16 C. difficile isolates; range over 16 C. difficile isolates): 0.13 to 1 µg/mL
- MIC [6]: 0.13 µg/mL (≈ 0.196 µM)
- MIC (C. sporogenes ATCC 15579): 1 µg/mL (≈ 1.51 µM)
- MIC [7]: 1 µg/mL (≈ 1.51 µM)
- MIC (P. nigrescens ATCC 33563): 8 µg/mL (≈ 12.1 µM)
- MIC [8]: 0.25 µg/mL (≈ 0.377 µM)
- log decrease in the number of CFUs (C. difficile strain 4118 [9]; 4 × MIC, 24 h): 2.2 log
- time to eradicate >99.9% of viable cells (C. difficile strain 4118 [9]; 16× MIC (rafoxanide 2 μg/mL, closantel 4 μg/mL, compound 8 1 μg/mL)): 24 h
- MIC (S. aureus RN4220): 0.25 µg/mL (≈ 0.377 µM)
- MIC [10]: 0.25 µg/mL (≈ 0.377 µM)
- MIC [11]: 0.25 µg/mL (≈ 0.377 µM)
- MIC [12]: 32 µg/mL (≈ 48.3 µM)
- MIC (P. distasonis ATCC 8503): 16 µg/mL (≈ 24.1 µM)
- MIC [13]: 0.25 µg/mL (≈ 0.377 µM)
- MIC [14]: 0.25 µg/mL (≈ 0.377 µM)
- MIC [15]: 0.125 µg/mL (≈ 0.189 µM)
- MIC [16]: > 32 µg/mL
- hemolysis at 1 h, 32 µg/mL (Hemolysis assay): < 1%
- MIC [17]: 16 µg/mL (≈ 24.1 µM)
- MIC [18]: 0.25 µg/mL (≈ 0.377 µM)
- MIC (B. subtilis ATCC 6051): ≤ 0.03 µg/mL
- MIC [19]: 0.13 to 0.25 µg/mL (≈ 0.196 to 0.377 µM)
- MIC [20]: 0.25 µg/mL (≈ 0.377 µM)
- MIC [21]: 0.25 µg/mL (≈ 0.377 µM)
- MIC (A. baumannii M2): > 32 µg/mL
